Values after ≈ are worked out from the molar mass of the structure shown.
How the values were obtained:
Assay type in all cases: functional
Vibrio cholerae = test: Antimicrobial activity against Vibrio cholerae MTCC 3906 after 24 to 48 hr by broth microdilution method
Salmonella typhi = test: Antimicrobial activity against Salmonella enterica subsp. enterica serovar Typhi MTCC 98 after 24 to 48 hr by broth microdilution method
Aspergillus fumigatus = test: Antimicrobial activity against Aspergillus fumigatus MTCC 3008 after 24 to 48 hr by broth microdilution method
Clostridium tetani = test: Antimicrobial activity against Clostridium tetani MTCC 449 after 24 to 48 hr by broth microdilution method
Candida albicans = test: Antimicrobial activity against Candida albicans MTCC 227 after 24 to 48 hr by broth microdilution method
Streptococcus pneumoniae = test: Antimicrobial activity against Streptococcus pneumoniae MTCC 1936 after 24 to 48 hr by broth microdilution method
Bacillus subtilis = test: Antimicrobial activity against Bacillus subtilis MTCC 441 after 24 to 48 hr by broth microdilution method
Escherichia coli = test: Antimicrobial activity against Escherichia coli MTCC 443 after 24 to 48 hr by broth microdilution method

Molecule	MIC (Vibrio cholerae) [µg/mL]	MIC (Salmonella typhi) [µg/mL]	MIC (Aspergillus fumigatus) [µg/mL]	MIC (Clostridium tetani) [µg/mL]	MIC (Candida albicans) [µg/mL]	MIC (Streptococcus pneumoniae) [µg/mL]	MIC (Bacillus subtilis) [µg/mL]	MIC (Escherichia coli) [µg/mL]
O=C1CCCC2=C1C(c1cc3cc(Cl)ccc3[nH]c1=O)NC(=S)N2 (stereo unspecified)	250 (≈ 695 µM)	200 (≈ 556 µM)	1000 (≈ 2780 µM)	250 (≈ 695 µM)	500 (≈ 1390 µM)	250 (≈ 695 µM)	250 (≈ 695 µM)	100 (≈ 278 µM)
Cc1ccc2[nH]c(=O)c(C3NC(=S)NC4=C3C(=O)CCC4)cc2c1 (stereo unspecified)	500 (≈ 1470 µM)	500 (≈ 1470 µM)	500 (≈ 1470 µM)	500 (≈ 1470 µM)	200 (≈ 589 µM)	500 (≈ 1470 µM)	500 (≈ 1470 µM)	500 (≈ 1470 µM)
CC1(C)CC(=O)C2=C(C1)NC(=S)NC2c1cc2ccccc2[nH]c1=O (stereo unspecified)	500 (≈ 1410 µM)	150 (≈ 424 µM)	500 (≈ 1410 µM)	500 (≈ 1410 µM)	500 (≈ 1410 µM)	500 (≈ 1410 µM)	500 (≈ 1410 µM)	125 (≈ 354 µM)
CCn1cc(C(=O)O)c(=O)c2cc(F)c(N3CCNCC3)cc21 [NORFLOXACIN]	10 (≈ 31.3 µM)	10 (≈ 31.3 µM)		50 (≈ 157 µM)		10 (≈ 31.3 µM)	100 (≈ 313 µM)	10 (≈ 31.3 µM)
NYSTATIN			100		100			
COc1ccc2[nH]c(=O)c(C3NC(=S)NC4=C3C(=O)CCC4)cc2c1 (stereo unspecified)	200 (≈ 563 µM)	125 (≈ 352 µM)	> 1000	200 (≈ 563 µM)	500 (≈ 1410 µM)	200 (≈ 563 µM)	200 (≈ 563 µM)	50 (≈ 141 µM)
CC1(C)CC(=O)C2=C(C1)N(c1ccccc1)C(=S)NC2c1cc2ccccc2[nH]c1=O (stereo unspecified)	500 (≈ 1160 µM)	200 (≈ 466 µM)	1000 (≈ 2330 µM)	250 (≈ 582 µM)	250 (≈ 582 µM)	500 (≈ 1160 µM)	500 (≈ 1160 µM)	250 (≈ 582 µM)
COc1ccc2[nH]c(=O)c(C3NC(=O)NC4=C3C(=O)CCC4)cc2c1 (stereo unspecified)	500 (≈ 1470 µM)	250 (≈ 737 µM)	1000 (≈ 2950 µM)	500 (≈ 1470 µM)	500 (≈ 1470 µM)	250 (≈ 737 µM)	250 (≈ 737 µM)	100 (≈ 295 µM)
CC1(C)S[C@@H]2[C@H](NC(=O)[C@H](N)c3ccccc3)C(=O)N2[C@H]1C(=O)O [AMPICILLIN]	100 (≈ 286 µM)	100 (≈ 286 µM)		250 (≈ 715 µM)		100 (≈ 286 µM)	250 (≈ 715 µM)	100 (≈ 286 µM)
Cc1ccc2[nH]c(=O)c(C3NC(=S)NC4=C3C(=O)CC(C)(C)C4)cc2c1 (stereo unspecified)	100 (≈ 272 µM)	150 (≈ 408 µM)	> 1000	100 (≈ 272 µM)	> 1000	100 (≈ 272 µM)	100 (≈ 272 µM)	250 (≈ 680 µM)
CC1(C)CC(=O)C2=C(C1)NC(=S)NC2c1cc2cc(Cl)ccc2[nH]c1=O (stereo unspecified)	50 (≈ 129 µM)	25 (≈ 64.5 µM)	1000 (≈ 2580 µM)	250 (≈ 645 µM)	500 (≈ 1290 µM)	50 (≈ 129 µM)	50 (≈ 129 µM)	125 (≈ 322 µM)
O=C(O)c1cn(C2CC2)c2cc(N3CCNCC3)c(F)cc2c1=O [CIPROFLOXACIN]	25 (≈ 75.4 µM)	25 (≈ 75.4 µM)				50 (≈ 151 µM)		25 (≈ 75.4 µM)
Cc1ccc2[nH]c(=O)c(C3NC(=O)NC4=C3C(=O)CC(C)(C)C4)cc2c1 (stereo unspecified)	1000 (≈ 2850 µM)	250 (≈ 711 µM)	1000 (≈ 2850 µM)	100 (≈ 285 µM)	500 (≈ 1420 µM)	100 (≈ 285 µM)	100 (≈ 285 µM)	100 (≈ 285 µM)
CC1(C)CC(=O)C2=C(C1)NC(=O)NC2c1cc2ccccc2[nH]c1=O (stereo unspecified)	250 (≈ 741 µM)	250 (≈ 741 µM)	500 (≈ 1480 µM)	200 (≈ 593 µM)	500 (≈ 1480 µM)	250 (≈ 741 µM)	500 (≈ 1480 µM)	100 (≈ 296 µM)
O=C1NC2=C(C(=O)CCC2)C(c2cc3ccccc3[nH]c2=O)N1 (stereo unspecified)	500 (≈ 1620 µM)	250 (≈ 808 µM)	> 1000	100 (≈ 323 µM)	500 (≈ 1620 µM)	100 (≈ 323 µM)	200 (≈ 647 µM)	250 (≈ 808 µM)
